From patent US9315483B2, “Synthesis of deuterated catechols and benzo[D][1,3]dioxoles and derivatives thereof” (Concert Pharmaceuticals, Inc., priority 2007, dated 2016)

Key:
CYP2D6 = CYP2D6 (Homo sapiens, UniProt P10635); experiment: in vitro
Description: Method: This study was conducted according to the procedure established by Bertelsen et al for paroxetine. See Bertelsen K M, Venkatakrishnan K, von Moltke L L, Obach S, Greenblatt, D J. Apparent mechanism-based inhibition of human CYP2D6 in vitro by paroxetine: comparison with fluoxetine and quinidine. Drug Met Disp 2003; 31:289-293. Briefly, the test articles were pre-incubated with human liver microsomes for various times followed by the addition of dextromethorphan, a CYP2D6 substrate. The formation of dextrorphan, a CYP2D6-specific metabolite of dextromethorphan, was monitored as a measure of CYP2D6 activity.

in vitro [1] = experiment: in vitro
Description: (§1) Method: Test Compound A was evaluated at a concentration of 1 μM for apparent metabolic stability by the in vitro t1/2 method described by Obach et al. See Obach R S, Baxter J G, Liston T E, Silber B M, Jones B C, MacIntyre F, et al. The prediction of human pharmacokinetic parameters from preclinical and in vitro metabolism data. JPET 1997; 283:46-58.

in vitro [2] = experiment: in vitro; remark: listed apart in the source
Description: as §1

[3] = molecular target: human cDNA-expressed CYP2D6 (Homo sapiens, UniProt P10635); experiment: Drug-drug interaction potential with tamoxifen: formation of endoxifen from N-desmethyl TAM after pre-incubation with CYP2D6
Chain of human cDNA-expressed CYP2D6 (P10635 whole entry): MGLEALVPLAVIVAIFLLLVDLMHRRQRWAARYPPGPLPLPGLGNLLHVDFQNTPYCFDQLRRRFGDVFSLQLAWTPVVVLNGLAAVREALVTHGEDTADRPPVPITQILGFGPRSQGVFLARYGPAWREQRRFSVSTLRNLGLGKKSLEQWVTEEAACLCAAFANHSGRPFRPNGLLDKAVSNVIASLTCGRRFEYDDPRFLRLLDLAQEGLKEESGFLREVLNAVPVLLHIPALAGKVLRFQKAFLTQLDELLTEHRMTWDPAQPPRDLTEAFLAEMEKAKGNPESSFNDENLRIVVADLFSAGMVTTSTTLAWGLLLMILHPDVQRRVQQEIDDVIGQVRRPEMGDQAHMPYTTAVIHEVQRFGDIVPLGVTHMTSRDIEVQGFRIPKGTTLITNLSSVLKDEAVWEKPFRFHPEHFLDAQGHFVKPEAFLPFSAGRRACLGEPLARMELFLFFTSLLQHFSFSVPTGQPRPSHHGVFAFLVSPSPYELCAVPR
Text: Objective: The objective of this study was to determine the potential for the deuterated paroxetine, (3S,4R)-3-((2,2-d2-benzo[d][1,3]dioxol-5-yloxy)methyl)-4-(4-fluorophenyl)piperidine, HCl salt-hemihydrate, to inhibit the formation of endoxifen using human cDNA-expressed CYP2D6 as compared with paroxetine. The deuterated paroxetine, (3S,4R)-3-((2,2-d2-benzo[d][1,3]dioxol-5-yloxy)methyl)-4-(4-fluorophenyl)piperidine, HCl salt-hemihydrate, will be referred to as “Test Compound A” in the following examples and the figures.
Method: Test Compound A was pre-incubated for 20 min at various concentrations with human cDNA-expressed CYP2D6 (500 pmol/mL) in the presence of NADPH, after which aliquots of the reaction mixture were diluted 1:10 in buffer containing NADPH. N-desmethyl TAM (50 μM) was then added to the diluted pre-incubation mixtures. After 45 min of incubation, endoxifen concentrations were determined by LC-MS/MS.

[4] = for vasomotor symptoms (VMS); expected

Chain of CYP2D6 (P10635 whole entry): as above

Row | SMILES | KI (inactivation) (CYP2D6; human, microsomes) [µM] | kinact (CYP2D6; human, microsomes) [s⁻¹] | inhibition of CYP2D6, expressed as the percentage of dextrorphan formation relative to control (CYP2D6; microsomes) | half-life at 1 μM (in vitro [1]; rat, microsomes) [min] | half-life at 1 μM (in vitro [2]; human, microsomes) [min] | endoxifen produced in the presence of Test Compound A relative to in the presence of paroxetine ([3]; highest concentration (25 μM)) [fold] | change in the formation of endoxifen from N-desmethyl tamoxifen ([3]; over the range of concentrations tested (0-25 μM), 20 min pre-incubation with NADPH, N-desmethyl TAM 50 μM, 45 min) | CYP2D6 activity (percentage of dextrorphan formation relative to control) (CYP2D6; 0-10 μM concentration range) | inhibition of CYP2D6 (CYP2D6; as the concentration approached 25 μM) | mechanism-based inactivation of CYP2D6 (CYP2D6; at concentrations up to 10 μM) | kINACT for CYP2D6 inactivation (CYP2D6; human liver microsomes) | t1/2 (in vitro [1]; Rat liver microsomes 0.5 mg/mL, 1 μM) [min] | mean relative amount remaining at the end of 30 minutes incubation (in vitro [1]; rat hepatic microsomes 0.5 mg/mL, 1 μM, n=4) [%] | t1/2 less than the corresponding value for paroxetine (in vitro [1]; rat liver microsomes) | t1/2 (in vitro [2]; Human liver microsomes 0.5 mg/mL, 1 μM) [min] | mean relative amount remaining at the end of 30 minutes incubation (in vitro [2]; human hepatic microsomes 0.5 mg/mL, 1 μM, n=4) [%] | t1/2 less than the corresponding value for paroxetine (in vitro [2]; human liver microsomes) [%] | maximum plasma concentration in humans [4] [nM]
1 | Fc1ccc([C@@H]2CCNC[C@H]2COc2ccc3c(c2)OCO3)cc1 [Paroxetine, paroxetine, reference compound] | 1.96 | 0.00133 | concentration- and time-dependent inhibition | 20.4 ± 2.1 | 49 ± 7.8 | – | – | – | – | – | – | – | – | – | – | – | – | –
2 | Cl.Cl.O.[2H]C1([2H])Oc2ccc(OC[C@@H]3CNCC[C@H]3c3ccc(F)cc3)cc2O1.[2H]C1([2H])Oc2ccc(OC[C@@H]3CNCC[C@H]3c3ccc(F)cc3)cc2O1 [Test Compound A, (3S,4R)-3-((2,2-d2-benzo[d][1,3]dioxol-5-yloxy)methyl)-4-(4-fluorophenyl)piperidine, HCl salt-hemihydrate] | – | – | – | – | – | 12 | little to no change | remained similar to that of control | Some inhibition | does not exhibit mechanism-based inactivation | could not be calculated | 15.5 ± 1.6 | 25.5±4.3 | approximately 24% | 20.9 ± 2.0 | 37.2±3.9 | ~57 | ≤ 30
